Source: patent publication US20200140826A1, “Maintenance and Expansion of Pancreatic Progenitor Cells” (AGENCY FOR SCIENCE, TECHNOLOGY AND RESEARCH, priority 2017, published 2020)

Legend:
cPP cells [1] = assay: Omission of individual components from complete cPP culture medium on 3T3-J2 feeders (phase contrast, qRT-PCR); type: cell-based, human; conditions: for Effect of removing the component on cPP expansion, colony size and morphology: component individually omitted from complete medium, cPP cells cultured 6 days on 3T3-J2 feeders
Procedure: Gentle cell dissociation reagent (STEMCELL Technologies, 07174) was used to passage cPP cells as aggregates that were then seeded at a 1:6 split ratio onto a layer of 3T3-J2 feeders (0.5×10^6 to 1×10^6 cells/cm^2) in medium composed of advanced DMEM/F12 (Thermo Fisher Scientific, 21634010), 2 mM L-glutamine (Thermo Fisher Scientific, 25030), 100 U/mL penicillin/streptomycin (Thermo Fisher Scientific, 15140122), 1× N2 supplement (Thermo Fisher Scientific, 17502-048), 1× B27 supplement (Thermo Fisher Scientific, 17504-044), 30 nM dexamethasone (STEMCELL Technologies, 72092), 50 ng/mL EGF (R&D Systems, 236-EG-200), 50 ng/mL FGF10 (Source Bioscience, ABC144), 3 μM RA (Sigma, R2625), 10 μM SB431542 (Calbiochem, 616464), and 1 μM DAPT (Sigma, D5942). If plating single cPP cells, complete medium was supplemented with 10 μM Y27632 for the first 48 hr (Sigma, Y0503). Medium was completely replenished every 2-3 days.
RNA was isolated from samples using an RNeasy mini kit (Qiagen, cat # 74104) and reverse transcribed to generate cDNA using a high-capacity reverse transcription kit and random hexamer primers (Applied Biosystems, 4368814,1 μg RNA per 20 μL reaction). Quantitative RT-PCR was carried out using SYBR Select Mastermix (Applied Biosystems, 4472908). Data were analyzed using the ΔΔCT method, and normalized to expression of the housekeeping gene TBP in each sample.
To establish the roles played by the growth factors and small molecules in our culture media, each was removed individually and the effect on differentiation and proliferation was assessed.

cPP cells [2] = assay: Microbioreactor array (MBA) screening of cPP maintenance and proliferation; type: cell-based, human; conditions: relatively low concentration (1 μM) in cPP culture medium
Procedure: Microbioreactor arrays were used to screen the effects of combinations of exogenous signaling molecules on cPP cells. MBAs provide combinatorial mixing of input factors, combined with continuous flow of culture media over culture chambers. MBAs were autoclaved and filled with sterile PBS, then coated (2-4 h, room temperature) with a single 1 mL injection of hESC-qualified matrigel at the manufacturer's recommended concentration. cPP cells in suspension in complete medium at 5×10^6/mL were then seeded in the MBA, giving a surface density of 50×10^6cells/cm^2. Cells were allowed to attach for a total of 20 h, with a media exchange performed every 6 h. […] Nuclear segmentation and quantification of nuclear intensities of PDX1 and SOX9 then proceeded similarly as previously described.
To quantify the effect of exogenous signaling molecules on the maintenance and expansion of cPP cells, this study used a microbioreactor array (MBA) screening platform to measure differentiation and proliferation. […] The study then used an image-segmentation algorithm to identify individual nuclei and quantify immunofluorescence staining for PDX1 and SOX9, thereby enabling the determination of the percentage of double-positive cells following exposure to different growth factor regimes. […]

Compound | Effect of removing the component on cPP expansion, colony size and morphology (cPP cells [1]) | Effect of removing the component on viability (cPP cells [1]; component removed from the culture media over multiple passages) | Effect on proliferation of cPP cells (cPP cells [2])
C[C@H](NC(=O)Cc1cc(F)cc(F)c1)C(=O)N[C@H](C(=O)OC(C)(C)C)c1ccccc1 [DAPT] | did not significantly affect colony size or morphology in the short term | noticeable loss of viability | promotes proliferation of cPP cells
NC(=O)c1ccc(-c2nc(-c3ccc4c(c3)OCO4)c(-c3ccccn3)[nH]2)cc1 [SB431542] | caused colonies to detach from the feeder layer | – | –
EGF: epidermal growth factor, growth factor in the cPP culture medium (50 ng/mL) (NSDSECPLSHDGYCLHDGVCMYIEALDKYACNCVVGYIGERCQYRDLKWWELR; Epidermal growth factor; UniProt P01133 971-1023, looked up) | prevented cPP expansion | – | –
